The test concerns obese mouse model. Description: Intraperitoneal puerarin derivatives in obese mouse model: body weight, blood lipid, jejunal TG. It counts as in vivo, mice. The following applies: for Blood lipid level / Jejunal TG level: individual obese mice; for Effect on TG (lipid) absorption in small intestine / Effect on blood lipid level / Effect on body weight of the obese mouse: intraperitoneal injection, result in words; for Body weight change percentage, Mean: puerarin derivative-1; for Body weight change percentage: intraperitoneal puerarin derivative-1. The text has this: In the present disclosure, the mice were fed with a high-fat diet in which a mass percentage of fat was 60% for 12 weeks, and when a body weight reached 35 g or more, animal models of alimentary obesity were successfully constructed. At a formal stage of the experiment (starting on day 0 in FIG. 1A, FIG. 3A, FIG. 6A, and FIG. 7A), the mice were raised in single cages, during which a daily food intake of each mouse model was accurately recorded, the feces was collected before and after drug intervention, and a daily body weight curve was recorded.
A method for determining TG in a sample was as follows: 20 mg to 30 mg of a sample was first weighed, a 5% NP40-containing lysis buffer was added, and a resulting mixture was homogenated and incubated in a metal bath at 95° C. for 5 min, which was repeated twice. A resulting homogenate was cooled to room temperature and then centrifuged at 15,000 rpm for 2 min to 3 min, and a resulting supernatant was pipetted for determination. A Biovision kit was used to determine TG. 2 μl of the supernatant was added to each well, and after a chromogenic reaction was completed, a value of each well was determined by a microplate reader. TG in the small intestinal tissue was quantified through a standard protein concentration; and a total amount of lipids excreted with the feces was calculated based on a measured value of the feces sample and a total mass of the sample at 24 h.

The mark [1] stands for this setting: group mean of 10 mice, puerarin derivative-2 group.
Setting [2] is: group mean of 8 mice, puerarin derivative-3 group.

Molecules are shown by their SMILES. “And” between values parts separate entries of the source, which are not always exact repeats. Identical values can stand only once.

`Cc1ccc(-c2coc3c(C4OC(CO)C(O)C(O)C4O)c(O)ccc3c2=O)cc1` (centres unmarked) [puerarin derivative-2]: the “Effect on TG (lipid) absorption in small intestine” value (shortened to “Effect on TG (lipid) absorption”) is recorded as “inhibiting the small intestinal lipid absorption”; the “Effect on blood lipid level” value is “reducing blood lipid”; the “Effect on body weight of the obese mouse” value was “reducing blood lipid and body weight”. Also, the “Body weight change curve, Mean” value (Day 0, group mean of 10 mice, puerarin derivative-2) came to 0.00%. Further, the “Body weight change curve” value (Day 0, individual obese mice, puerarin derivative-2) worked out at 0.00%. Further, for the setting “Day 1, group mean of 10 mice, puerarin derivative-2”, the “Body weight change curve, Mean” value was −1.67%. Also, the “Body weight change curve” value (Day 1, individual obese mice, puerarin derivative-2) is −2.39% and −0.56% and −1.13% and −2.22% and 0.90% and −2.19% and −0.28% and −2.70% and −2.55% and −3.57%. For the same compound, the “Body weight change curve, Mean” value (Day 2, group mean of 10 mice, puerarin derivative-2) is on record as −2.33%. Besides, where the note is “Day 2, individual obese mice, puerarin derivative-2”, the “Body weight change curve” value is −2.74% and −2.26% and −1.99% and −4.21% and 0.60% and −2.75% and −0.84% and −2.15% and −2.88% and −4.10%. Also, the “Body weight change curve, Mean” value (Day 3, group mean of 10 mice, puerarin derivative-2) is given as −2.88%. Also, the “Body weight change curve” value (Day 3, individual obese mice, puerarin derivative-2) was −2.74% and −3.43% and −3.16% and −4.55% and 0.00% and −2.75% and −1.41% and −3.55% and −2.88% and −4.37%. For the same compound, the “Body weight change curve, Mean” value (Day 4, group mean of 10 mice, puerarin derivative-2) is given as −3.46%. The “Body weight change curve” value (Day 4, individual obese mice, puerarin derivative-2) is −2.74% and −3.73% and −3.16% and −3.87% and −0.91% and −3.89% and −1.13% and −4.40% and −4.21% and −6.57%. For the setting “Day 5, group mean of 10 mice, puerarin derivative-2”, the “Body weight change curve, Mean” value is −3.68%. For the same compound, the “Body weight change curve” value (Day 5, individual obese mice, puerarin derivative-2) is −2.74% and −4.03% and −3.76% and −4.21% and −0.61% and −3.89% and −1.99% and −4.11% and −4.89% and −6.57%. Further, under “Day 6, group mean of 10 mice, puerarin derivative-2”, the “Body weight change curve, Mean” value is recorded as −3.68%. Further, the “Body weight change curve” value (Day 6, individual obese mice, puerarin derivative-2) was −2.74% and −4.03% and −3.16% and −3.54% and −0.91% and −4.47% and −4.67% and −3.55% and −2.88% and −6.85%. Further, the “Body weight change curve, Mean” value (Day 7, group mean of 10 mice, puerarin derivative-2) is given as −3.98%. For the same compound, the “Body weight change curve” value (Day 7, individual obese mice, puerarin derivative-2) was −3.45% and −2.26% and −2.57% and −3.87% and −2.15% and −5.66% and −4.37% and −2.43% and −5.93% and −7.13%. Also, under setting [1], the “Blood lipid level, Mean” value is recorded as 1.0006 mM and the “Jejunal TG level, Mean” value came out at 1.3072 μmol/mg/protein. For the same compound, under “puerarin derivative-2 group”, the Blood lipid level is 1.0874 mM and 1.0496 mM and 0.6903 mM and 0.8792 mM and 0.6729 mM and 1.3428 mM and 0.9551 mM and 1.1631 mM and 1.1347 mM and 1.0307 mM; the “Jejunal TG level” value is 1.7043 μmol/mg/protein and 1.5325 μmol/mg/protein and 1.5551 μmol/mg/protein and 1.3572 μmol/mg/protein and 1.1252 μmol/mg/protein and 1.1433 μmol/mg/protein and 1.3121 μmol/mg/protein and 1.0924 μmol/mg/protein and 1.2506 μmol/mg/protein and 0.9988 μmol/mg/protein.
Regarding `OCC1OC(c2c(O)ccc3c2OC=C(c2ccc(O)cc2)C3O)C(O)C(O)C1O` (centres unmarked) [Derivative-1], the “Effect on TG (lipid) absorption” value is listed as “inhibit the TG absorption in small intestine”, the “Effect on blood lipid level” value was “effectively reduce blood lipid level” and the “Effect on body weight of the obese mouse” value is recorded as “significantly reduce the body weight”. Besides, the “Body weight change percentage, Mean” value (Day 0, group mean of 10 mice) was determined as 0.00%. The “Body weight change percentage” value (Day 0, individual obese mice) worked out at 0.00%. In addition, under “Day 1, group mean of 10 mice”, the “Body weight change percentage, Mean” value is −1.88%. Moreover, the “Body weight change percentage” value (Day 1, individual obese mice) is −0.25% and −2.34% and −2.27% and −3.30% and −2.93% and 0.00% and −2.45% and 0.28% and −2.89% and −2.63%. Also, the “Body weight change percentage, Mean” value (Day 2, group mean of 10 mice) is −2.10%. Moreover, the “Body weight change percentage” value (Day 2, individual obese mice) is −0.74% and −1.86% and −2.56% and −3.79% and −4.32% and −0.26% and −2.20% and 0.00% and −2.62% and −2.63%. Besides, for the setting “Day 3, group mean of 10 mice”, the “Body weight change percentage, Mean” value is given as −2.96%. Moreover, under “Day 3, individual obese mice”, the “Body weight change percentage” value was −1.24% and −3.06% and −2.56% and −4.04% and −4.32% and −1.55% and −2.45% and −1.14% and −4.53% and −4.77%. The “Body weight change percentage, Mean” value (Day 4, group mean of 10 mice) is listed as −3.71%. Where the note is “Day 4, individual obese mice”, the “Body weight change percentage” value was −0.99% and −3.79% and −3.73% and −6.05% and −4.88% and −3.15% and −3.46% and −2.30% and −4.26% and −4.46%. The “Body weight change percentage, Mean” value (Day 5, group mean of 10 mice) is recorded as −3.61%. In addition, the “Body weight change percentage” value (Day 5, individual obese mice) is −1.74% and −3.55% and −4.33% and −6.05% and −3.48% and −2.08% and −2.95% and −3.79% and −3.70% and −4.46%. Moreover, the “Body weight change percentage, Mean” value (Day 6, group mean of 10 mice) is reported as −3.95%. The “Body weight change percentage” value (Day 6, individual obese mice) was −4.08% and −3.06% and −2.56% and −6.31% and −5.17% and −2.35% and −3.21% and −2.60% and −5.09% and −5.08%. For the same compound, the “Body weight change percentage, Mean” value (Day 7, group mean of 10 mice) is −4.08%. The “Body weight change percentage” value (Day 7, individual obese mice) is −3.81% and −2.10% and −5.25% and −6.56% and −6.62% and −2.35% and −2.20% and −3.79% and −4.26% and −3.84%.
On to `OCC1OC2c3c(ccc4c3OC=C(c3ccc(O)cc3)C4O)OC2C(O)C1O` (centres unmarked) [puerarin derivative-3], for which the “Effect on TG (lipid) absorption” value is given as “inhibiting the small intestinal lipid absorption”; the “Effect on blood lipid level” value is “reducing blood lipid”; the “Effect on body weight of the obese mouse” value is “reducing blood lipid and body weight”. Further, the “Body weight change curve, Mean” value (Day 0, group mean of 8 mice, puerarin derivative-3) was found to be 0.00%. The “Body weight change curve” value (Day 0, individual obese mice, puerarin derivative-3) is reported as 0.00%. Also, the “Body weight change curve, Mean” value (Day 1, group mean of 8 mice, puerarin derivative-3) was −2.37%. For the setting “Day 1, individual obese mice, puerarin derivative-3”, the “Body weight change curve” value is −3.96% and −2.50% and −1.71% and −2.35% and −2.28% and −0.26% and −2.59% and −3.32%. In addition, the “Body weight change curve, Mean” value (Day 2, group mean of 8 mice, puerarin derivative-3) is on record as −3.16%. Further, the “Body weight change curve” value (Day 2, individual obese mice, puerarin derivative-3) was −5.57% and −1.65% and −3.77% and −2.65% and −4.06% and −0.80% and −2.88% and −3.90%. Also, where the note is “Day 3, group mean of 8 mice, puerarin derivative-3”, the “Body weight change curve, Mean” value was −3.01%. The “Body weight change curve” value (Day 3, individual obese mice, puerarin derivative-3) was −1.49% and −2.50% and −4.68% and −2.65% and −4.36% and −1.34% and −2.88% and −4.19%. Besides, the “Body weight change curve, Mean” value (Day 4, group mean of 8 mice, puerarin derivative-3) is given as −3.76%. In addition, the “Body weight change curve” value (Day 4, individual obese mice, puerarin derivative-3) was −2.09% and −3.65% and −6.24% and −2.65% and −3.76% and −1.07% and −4.39% and −6.27%. In addition, where the note is “Day 5, group mean of 8 mice, puerarin derivative-3”, the “Body weight change curve, Mean” value is on record as −4.10%. Further, for the setting “Day 5, individual obese mice, puerarin derivative-3”, the “Body weight change curve” value was −3.02% and −3.65% and −6.24% and −2.65% and −4.06% and −1.88% and −5.00% and −6.27%. In addition, under “Day 6, group mean of 8 mice, puerarin derivative-3”, the “Body weight change curve, Mean” value is on record as −4.33%. Further, the “Body weight change curve” value (Day 6, individual obese mice, puerarin derivative-3) was −3.33% and −5.13% and −6.24% and −2.65% and −3.46% and −4.41% and −2.88% and −6.57%. Also, the “Body weight change curve, Mean” value (Day 7, group mean of 8 mice, puerarin derivative-3) is recorded as −5.42%. Where the note is “Day 7, individual obese mice, puerarin derivative-3”, the “Body weight change curve” value is −5.24% and −6.65% and −7.51% and −3.26% and −3.76% and −4.13% and −5.93% and −6.88%. Under setting [2], the “Blood lipid level, Mean” value was found to be 1.2750 mM and the “Jejunal TG level, Mean” value amounted to 1.2900 μmol/mg/protein. Where the note is “puerarin derivative-3 group”, the Blood lipid level was 1.62 mM and 1.06 mM (2×) and 1.69 mM and 1.23 mM and 1.07 mM and 1.29 mM and 1.18 mM; the “Jejunal TG level” value was 1.29 μmol/mg/protein and 1.48 μmol/mg/protein (2×) and 1.36 μmol/mg/protein and 1.27 μmol/mg/protein and 1.53 μmol/mg/protein and 1.06 μmol/mg/protein and 0.85 μmol/mg/protein.

The values are drawn from patent US20240173344A1, “USE OF GABAA RECEPTOR AS TARGET IN PREPARATION OR SCREENING OF DRUG FOR LOWERING BLOOD LIPID LEVEL, TREATING OBESITY, AND/OR IMPROVING METABOLISM” (SHANGHAI INSTITUTE OF ENDOCRINE AND METABOLIC DISEASES, priority 2022, published 2024).
